# Calls of active or inactive are those of the source. No cut-off for these calls is given here.
# Experiments:
# [1] = target: Focal adhesion kinase 1 (Homo sapiens) (UniProt Q05397); test: Inhibition of FAK Lys1 labeling site in human Huh-7 cell lysate at 1 uM by KiNativ Profiling analysis relative to control; type: subcellular
# [2] = target: Dual specificity mitogen-activated protein kinase kinase 2 (Homo sapiens) (UniProt P36507); test: Inhibition of MAP2K2 Lys2 labeling site in human Huh-7 cell lysate at 1 uM by KiNativ Profiling analysis relative to control; type: subcellular
# [3] = target: T1, Mitogen-activated protein kinase kinase kinase 2 (Homo sapiens) (UniProt Q9Y2U5); test: Inhibition of MAP3K2 Lys1 labeling site in human Huh-7 cells at 1 uM by KiNativ Profiling analysis relative to control; type: cell-based
# T1 sequence (whole entry): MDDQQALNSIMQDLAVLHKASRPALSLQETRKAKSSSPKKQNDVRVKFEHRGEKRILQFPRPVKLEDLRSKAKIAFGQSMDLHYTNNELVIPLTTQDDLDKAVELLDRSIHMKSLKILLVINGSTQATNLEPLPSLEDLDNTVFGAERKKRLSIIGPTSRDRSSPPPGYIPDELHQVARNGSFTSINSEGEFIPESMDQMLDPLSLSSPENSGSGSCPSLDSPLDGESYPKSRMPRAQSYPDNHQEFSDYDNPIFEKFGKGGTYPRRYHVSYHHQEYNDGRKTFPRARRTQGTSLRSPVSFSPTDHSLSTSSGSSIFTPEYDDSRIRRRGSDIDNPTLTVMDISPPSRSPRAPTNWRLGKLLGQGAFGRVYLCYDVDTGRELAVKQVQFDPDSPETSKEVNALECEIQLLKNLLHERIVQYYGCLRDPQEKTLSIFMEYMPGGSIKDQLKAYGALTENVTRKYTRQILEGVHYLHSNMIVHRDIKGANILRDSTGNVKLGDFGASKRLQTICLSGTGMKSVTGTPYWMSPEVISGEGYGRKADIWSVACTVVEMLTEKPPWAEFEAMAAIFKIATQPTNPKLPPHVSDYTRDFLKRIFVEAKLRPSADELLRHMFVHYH
# [4] = test system: 293-IL-1R; test: Inhibition of IL-1alpha induced p105 phosphorylation level in human 293-IL-1R cells preincubated for 1 hr followed by IL-1 alpha stimulation and measured after 30 mins by Western blot analysis; type: functional, cell-based; settings: dose 0.01-10 µM
# [5] = target: Atypical kinase COQ8A, mitochondrial (Homo sapiens) (UniProt Q8NI60); test: Inhibition of ADCK3 (unknown origin) at 10 uM by Ambit Kinomescan binding assay
# [6] = target: Bone morphogenetic protein receptor type-1B (Homo sapiens) (UniProt O00238); test: Inhibition of BMPR1B (unknown origin) at 10 uM by Ambit Kinomescan binding assay
# [7] = target: T2, Dual specificity mitogen-activated protein kinase kinase 4 (Homo sapiens) (UniProt P45985); test: Inhibition of MEK4 (unknown origin) at 10 uM by Ambit Kinomescan binding assay
# T2 sequence (whole entry): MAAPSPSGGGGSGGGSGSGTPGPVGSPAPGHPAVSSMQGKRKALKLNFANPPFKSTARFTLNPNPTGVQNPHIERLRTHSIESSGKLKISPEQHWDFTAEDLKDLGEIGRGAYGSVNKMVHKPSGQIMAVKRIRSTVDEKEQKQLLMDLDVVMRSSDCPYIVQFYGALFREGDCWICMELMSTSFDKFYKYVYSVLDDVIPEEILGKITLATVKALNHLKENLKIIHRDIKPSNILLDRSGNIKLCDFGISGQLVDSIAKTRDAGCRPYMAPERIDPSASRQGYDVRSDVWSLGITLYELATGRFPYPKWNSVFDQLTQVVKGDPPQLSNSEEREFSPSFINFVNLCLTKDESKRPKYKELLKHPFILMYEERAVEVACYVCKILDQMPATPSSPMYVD
# [8] = target: Serine/threonine-protein kinase N2 (Homo sapiens) (UniProt Q16513); test: Inhibition of PKN2 (unknown origin) at 10 uM by Ambit Kinomescan binding assay
# [9] = target: Ribosomal protein S6 kinase alpha-5 (Homo sapiens) (UniProt O75582); test: Inhibition of C-terminal RPS6KA5 kinase domain 2 (unknown origin) at 10 uM by Ambit Kinomescan binding assay
# [10] = target: Dual specificity mitogen-activated protein kinase kinase 1 (Homo sapiens) (UniProt Q02750); test: Inhibition of MAP2K1 Lys1 labeling site in human A-375 cells at 0.05 uM by KiNativ Profiling analysis relative to control; type: cell-based
# [11] = target: Dual specificity mitogen-activated protein kinase kinase 2 (Homo sapiens) (UniProt P36507); test: Inhibition of MAP2K2 Lys1 labeling site in human A-375 cells at 0.05 uM by KiNativ Profiling analysis relative to control; type: cell-based
# [12] = target: Tyrosine-protein kinase Fer (Homo sapiens, UniProt P16591); test: Inhibition of FER K1 labeling site in human Huh-7 cells at 10 uM by KiNativ Profiling analysis relative to control; type: cell-based
# [13] = target: Receptor-interacting serine/threonine-protein kinase 1 (Homo sapiens) (UniProt Q13546); test: Inhibition of RIPK1 (unknown origin) at 10 uM by Ambit Kinomescan binding assay relative to control; values are per cent of control
# [14] = target: Ephrin type-A receptor 2 (Homo sapiens, UniProt P29317); test: Inhibition of EPHA2 (unknown origin) at 1 uM by Ambit Kinomescan binding assay relative to control
# [15] = target: Ribosomal protein S6 kinase alpha-1 (Homo sapiens) (UniProt Q15418); test: Inhibition of RSK1 domain1 ACT labeling site in human A-375 cells at 5 uM by KiNativ Profiling analysis relative to control; type: cell-based
# [16] = target: Tyrosine-protein kinase FRK (Homo sapiens) (UniProt P42685); test: Inhibition of FRK (unknown origin) at 1 uM by Ambit Kinomescan binding assay relative to control; values are per cent of control
# [17] = target: Myosin light chain kinase, smooth muscle (Homo sapiens) (UniProt Q15746); test: Inhibition of MYLK (unknown origin) at 1 uM by Ambit Kinomescan binding assay relative to control; values are per cent of control
# [18] = target: Cyclin-dependent kinase 4/cyclin D1 (Homo sapiens) (UniProt P11802+P24385); test: Inhibition of CDK4/cyclinD1 (unknown origin) at 1 uM by Ambit Kinomescan binding assay relative to control; values are per cent of control
# Sequence of Dual specificity mitogen-activated protein kinase kinase 2 (Homo sapiens) (P36507 whole entry): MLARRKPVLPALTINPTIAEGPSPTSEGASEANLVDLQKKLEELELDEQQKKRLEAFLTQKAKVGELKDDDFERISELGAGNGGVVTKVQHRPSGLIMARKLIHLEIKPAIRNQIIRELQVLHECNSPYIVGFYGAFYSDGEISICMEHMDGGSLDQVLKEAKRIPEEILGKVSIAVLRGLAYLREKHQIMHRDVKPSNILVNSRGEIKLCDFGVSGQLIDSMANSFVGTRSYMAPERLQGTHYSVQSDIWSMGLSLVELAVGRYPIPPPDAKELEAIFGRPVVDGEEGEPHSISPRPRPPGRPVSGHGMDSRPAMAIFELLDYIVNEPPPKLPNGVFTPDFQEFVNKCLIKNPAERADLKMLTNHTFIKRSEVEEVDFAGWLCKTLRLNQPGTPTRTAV
# Sequence of Ribosomal protein S6 kinase alpha-1 (Homo sapiens) (Q15418 whole entry, the tested form may be a part): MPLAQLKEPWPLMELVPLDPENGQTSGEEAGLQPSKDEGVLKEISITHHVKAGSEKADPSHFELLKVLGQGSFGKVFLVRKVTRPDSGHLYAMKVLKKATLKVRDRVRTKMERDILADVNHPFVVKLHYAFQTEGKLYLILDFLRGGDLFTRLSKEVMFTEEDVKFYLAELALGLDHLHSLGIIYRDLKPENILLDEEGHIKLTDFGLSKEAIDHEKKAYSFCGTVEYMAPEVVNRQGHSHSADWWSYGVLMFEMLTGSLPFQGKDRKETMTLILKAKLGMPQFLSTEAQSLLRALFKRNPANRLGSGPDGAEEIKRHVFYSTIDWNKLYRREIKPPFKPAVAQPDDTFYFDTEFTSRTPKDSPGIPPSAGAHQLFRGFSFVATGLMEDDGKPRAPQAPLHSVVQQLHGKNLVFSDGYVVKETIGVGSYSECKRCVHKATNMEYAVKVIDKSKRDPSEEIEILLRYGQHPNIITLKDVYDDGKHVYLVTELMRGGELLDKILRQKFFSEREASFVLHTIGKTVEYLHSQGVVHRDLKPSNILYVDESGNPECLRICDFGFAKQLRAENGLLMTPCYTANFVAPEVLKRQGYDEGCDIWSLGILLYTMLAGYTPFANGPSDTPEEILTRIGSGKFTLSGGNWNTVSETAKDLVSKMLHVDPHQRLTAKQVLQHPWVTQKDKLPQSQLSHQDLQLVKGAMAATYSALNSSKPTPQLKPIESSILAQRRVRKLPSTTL
# Sequence of Tyrosine-protein kinase Fer (P16591 whole entry, looked up): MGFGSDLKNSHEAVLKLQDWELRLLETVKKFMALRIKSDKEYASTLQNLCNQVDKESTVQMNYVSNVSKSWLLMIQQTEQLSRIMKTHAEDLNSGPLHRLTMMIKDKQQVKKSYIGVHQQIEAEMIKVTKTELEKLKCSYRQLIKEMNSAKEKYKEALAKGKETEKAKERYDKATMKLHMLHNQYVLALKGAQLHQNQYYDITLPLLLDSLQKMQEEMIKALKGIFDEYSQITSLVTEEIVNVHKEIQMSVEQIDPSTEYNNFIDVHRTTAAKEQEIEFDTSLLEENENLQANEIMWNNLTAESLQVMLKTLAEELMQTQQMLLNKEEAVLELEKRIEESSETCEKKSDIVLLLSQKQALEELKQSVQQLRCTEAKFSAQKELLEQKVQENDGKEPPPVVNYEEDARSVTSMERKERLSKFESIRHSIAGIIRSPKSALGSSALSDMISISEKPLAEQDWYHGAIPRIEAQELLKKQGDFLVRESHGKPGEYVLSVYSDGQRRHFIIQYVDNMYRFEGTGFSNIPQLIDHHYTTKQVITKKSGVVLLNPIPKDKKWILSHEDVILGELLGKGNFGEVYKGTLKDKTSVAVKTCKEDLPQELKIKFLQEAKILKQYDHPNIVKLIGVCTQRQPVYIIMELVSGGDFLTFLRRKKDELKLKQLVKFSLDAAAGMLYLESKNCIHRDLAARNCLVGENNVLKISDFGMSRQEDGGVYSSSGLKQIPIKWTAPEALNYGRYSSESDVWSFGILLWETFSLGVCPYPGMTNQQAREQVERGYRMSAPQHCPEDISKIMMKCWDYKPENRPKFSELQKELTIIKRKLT
# Sequence of Myosin light chain kinase, smooth muscle (Homo sapiens) (Q15746 whole entry): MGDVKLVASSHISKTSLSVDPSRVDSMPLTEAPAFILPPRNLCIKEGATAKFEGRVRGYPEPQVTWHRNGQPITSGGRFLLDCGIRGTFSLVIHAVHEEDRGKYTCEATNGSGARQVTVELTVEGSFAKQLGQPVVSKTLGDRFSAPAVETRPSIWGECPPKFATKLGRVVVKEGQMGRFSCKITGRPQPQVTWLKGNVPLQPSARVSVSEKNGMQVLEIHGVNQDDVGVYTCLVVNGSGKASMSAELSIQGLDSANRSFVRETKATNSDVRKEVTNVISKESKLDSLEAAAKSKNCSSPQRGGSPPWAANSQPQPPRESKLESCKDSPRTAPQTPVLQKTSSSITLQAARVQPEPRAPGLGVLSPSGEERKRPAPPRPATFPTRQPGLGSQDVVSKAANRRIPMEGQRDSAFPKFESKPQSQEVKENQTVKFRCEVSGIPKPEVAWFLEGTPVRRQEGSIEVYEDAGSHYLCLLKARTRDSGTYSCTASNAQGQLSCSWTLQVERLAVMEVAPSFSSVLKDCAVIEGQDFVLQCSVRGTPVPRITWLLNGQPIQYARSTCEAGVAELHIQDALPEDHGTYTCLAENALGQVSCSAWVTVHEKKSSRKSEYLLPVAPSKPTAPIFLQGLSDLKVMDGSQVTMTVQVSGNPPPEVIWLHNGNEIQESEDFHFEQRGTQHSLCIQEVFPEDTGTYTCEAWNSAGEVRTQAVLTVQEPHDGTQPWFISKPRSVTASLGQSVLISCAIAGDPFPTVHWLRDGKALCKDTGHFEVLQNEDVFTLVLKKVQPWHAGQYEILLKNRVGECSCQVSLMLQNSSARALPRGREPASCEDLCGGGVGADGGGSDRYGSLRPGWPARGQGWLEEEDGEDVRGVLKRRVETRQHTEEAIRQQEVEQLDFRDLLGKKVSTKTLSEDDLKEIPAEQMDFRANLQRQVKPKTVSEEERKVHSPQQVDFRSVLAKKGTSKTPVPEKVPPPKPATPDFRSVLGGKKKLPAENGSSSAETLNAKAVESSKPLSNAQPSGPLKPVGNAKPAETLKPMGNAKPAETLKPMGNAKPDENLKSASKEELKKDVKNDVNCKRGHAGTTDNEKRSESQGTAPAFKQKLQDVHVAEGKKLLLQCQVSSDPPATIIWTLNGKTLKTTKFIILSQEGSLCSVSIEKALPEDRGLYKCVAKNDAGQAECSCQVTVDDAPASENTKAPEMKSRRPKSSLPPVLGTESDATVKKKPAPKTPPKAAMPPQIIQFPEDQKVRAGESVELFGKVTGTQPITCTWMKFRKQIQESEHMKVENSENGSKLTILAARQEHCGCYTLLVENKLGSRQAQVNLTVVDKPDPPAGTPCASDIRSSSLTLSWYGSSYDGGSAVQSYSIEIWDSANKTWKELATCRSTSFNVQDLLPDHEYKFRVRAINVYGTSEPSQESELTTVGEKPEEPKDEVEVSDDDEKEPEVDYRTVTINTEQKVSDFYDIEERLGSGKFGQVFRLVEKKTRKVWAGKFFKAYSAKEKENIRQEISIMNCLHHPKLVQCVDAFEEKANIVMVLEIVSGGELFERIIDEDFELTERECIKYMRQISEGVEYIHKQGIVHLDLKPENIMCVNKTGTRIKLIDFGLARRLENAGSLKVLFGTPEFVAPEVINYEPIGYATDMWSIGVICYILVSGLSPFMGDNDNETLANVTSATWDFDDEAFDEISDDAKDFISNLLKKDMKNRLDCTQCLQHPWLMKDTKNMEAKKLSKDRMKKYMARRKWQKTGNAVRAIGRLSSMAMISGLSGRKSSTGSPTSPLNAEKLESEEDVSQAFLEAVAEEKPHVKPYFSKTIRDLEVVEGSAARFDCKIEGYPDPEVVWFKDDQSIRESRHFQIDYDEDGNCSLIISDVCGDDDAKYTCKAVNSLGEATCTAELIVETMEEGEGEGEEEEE
# Sequence of Bone morphogenetic protein receptor type-1B (Homo sapiens) (O00238 whole entry): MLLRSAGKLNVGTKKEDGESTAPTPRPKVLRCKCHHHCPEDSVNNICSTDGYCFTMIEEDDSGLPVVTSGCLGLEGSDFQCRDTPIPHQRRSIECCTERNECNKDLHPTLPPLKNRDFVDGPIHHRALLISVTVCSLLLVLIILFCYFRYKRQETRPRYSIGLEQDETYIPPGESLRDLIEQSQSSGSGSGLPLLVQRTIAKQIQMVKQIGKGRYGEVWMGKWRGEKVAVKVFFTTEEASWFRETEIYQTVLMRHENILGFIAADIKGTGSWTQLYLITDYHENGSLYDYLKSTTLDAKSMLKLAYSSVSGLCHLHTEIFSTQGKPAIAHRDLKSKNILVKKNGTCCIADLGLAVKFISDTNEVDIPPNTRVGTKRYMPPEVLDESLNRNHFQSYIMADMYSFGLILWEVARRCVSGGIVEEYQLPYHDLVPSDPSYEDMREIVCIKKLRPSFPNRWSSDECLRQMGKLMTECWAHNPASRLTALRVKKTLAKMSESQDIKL
# Sequence of Tyrosine-protein kinase FRK (Homo sapiens) (P42685 whole entry): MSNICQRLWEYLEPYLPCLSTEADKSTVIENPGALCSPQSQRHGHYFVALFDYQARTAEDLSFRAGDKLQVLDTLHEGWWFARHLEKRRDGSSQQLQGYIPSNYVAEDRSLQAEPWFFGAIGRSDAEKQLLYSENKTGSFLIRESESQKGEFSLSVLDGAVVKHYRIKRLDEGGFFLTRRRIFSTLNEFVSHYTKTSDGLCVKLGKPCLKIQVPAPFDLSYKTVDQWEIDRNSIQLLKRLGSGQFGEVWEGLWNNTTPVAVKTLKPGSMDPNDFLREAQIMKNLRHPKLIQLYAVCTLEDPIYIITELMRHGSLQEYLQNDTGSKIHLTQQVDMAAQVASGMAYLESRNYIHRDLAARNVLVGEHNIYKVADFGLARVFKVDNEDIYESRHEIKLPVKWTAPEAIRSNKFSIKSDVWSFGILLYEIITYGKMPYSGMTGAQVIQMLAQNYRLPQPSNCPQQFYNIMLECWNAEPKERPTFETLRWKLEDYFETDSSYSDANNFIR
smiles,measurement,setting,value
CNc1cc(Oc2cc(C(=O)Nc3cc(N4CCN(C)CC4)cc(C(F)(F)F)c3)ccc2C)ncn1,inhibition,[1],3.3%
same,inhibition,[2],15.6%
same,inhibition,[3],28.2%
CCN1CCN(Cc2ccc(NC(=O)c3ccc(C)c(Oc4ccnc5[nH]ccc45)c3)cc2C(F)(F)F)CC1,inhibition,[4],Dose-Dependent Effect
same,inhibition,[5],inactive
same,inhibition,[6],inactive
same,inhibition,[7],inactive
same,inhibition,[8],inactive
same,inhibition,[9],inactive
same,inhibition,[10],2.9%
same,inhibition,[11],2.9%
same,inhibition,[12],83.3%
same,residual activity,[13],0%
CCN1CCN(Cc2ccc(NC(=O)c3ccc(C)c(/C=C/c4cnc5[nH]ccc5c4OC)c3)cc2C(F)(F)F)CC1,percent of control,[14],1.2%
same,inhibition,[15],14.7%
same,residual activity,[16],3.6%
same,residual activity,[17],81%
same,percent of control,[18],100%
